The text below walks through data of patent publication US20250213701A1, “MEDICAMENT FOR TREATING HUMAN TUMOR BASED ON ERF3A-TARGETING PROTEOLYSIS MECHANISM” (SUZHOU DEGEN BIO-MEDICAL CO., LTD., priority 2022, published 2025).

What all share (format): cell-based
One assay has as its target T1, SRD5A3 (Homo sapiens, UniProt Q9H8P0).
T1 construct: The downregulation of SRD5A3 and GSPT1 (eRF3a) proteins in PC-3 and HepG2 cells by C59; endogenous in cells; host or cells: 22Rv1, PC-3, HepG2
T1 sequence (Q9H8P0 1-318): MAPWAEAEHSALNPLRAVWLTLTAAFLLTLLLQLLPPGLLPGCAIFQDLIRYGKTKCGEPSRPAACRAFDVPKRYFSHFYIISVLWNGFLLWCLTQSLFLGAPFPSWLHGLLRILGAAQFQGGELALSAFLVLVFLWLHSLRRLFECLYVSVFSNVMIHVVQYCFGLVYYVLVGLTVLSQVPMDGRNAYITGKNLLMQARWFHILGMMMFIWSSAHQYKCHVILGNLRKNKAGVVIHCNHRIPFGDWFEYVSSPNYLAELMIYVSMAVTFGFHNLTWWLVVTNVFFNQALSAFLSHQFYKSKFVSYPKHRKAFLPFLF
In words: Western blot assay in PC-3 cells: SRD5A3. Particulars: different concentrations at 24 h (FIG. 9). The text has this: (§1) Example 84: Western Blot Assay of Compound C59 in 22Rv1, PC-3, and HepG2 Cells
(§2) (1) Materials: 22Rv1, PC-3, and HepG2 cell, anti-SRD5A1 antibody (ab167606), anti-SRD5A2 antibody (ab124877), anti-SRD5A3 antibody (PA5-107029), anti-androgen receptor (AR) antibody (CST, No. 5153), anti-GSPT1 antibody (Abcam, ab234433), anti-GADPH antibody (CST, No. 5174), anti-c-Myc antibody (CST, No. 8583), anti-α-tublin antibody (CST, No. 2125), anti-rabbit IgG, HRP-linked antibody (CST, No. 7074), electrophoresis device and membrane transfer device (LIUYI, BEIJING; DYCZ-24DN)
(§3) Cell seeding: 22Rv1 (Cell Bank of the Chinese Academy of Sciences, TCHu100), PC-3 (Cell Bank of the Chinese Academy of Sciences, SCSP-532) and HepG2 cells (Cell Bank of the Chinese Academy of Sciences, TCHu72) were subcultured and trypsinized to prepare 6×10^5 cells/mL suspensions, seeded on 6-well plates (3 mL/well), and cultured overnight in a cell incubator at 5% CO2 and 37° C. […]
(§4) Protein quantification: The protein was quantified using a BCA protein quantification kit. […]
(§5) Western immunoblot assay (or Western blot, WB): SDS-PAGE gel at a proper concentration was prepared according to the molecular weight of the target protein: for example, the concentration of the separation gel was 8% and the concentration of the stacking gel was 5%. The loading volume was adjusted according to the protein quantification results. […]
For orientation: Immunoblotting shows a protein as a band on a membrane.

For assay [1], the target named is T2, GSPT1 (eRF3a) (Homo sapiens, UniProt P15170+Q96SW2).
T2 construct: The downregulation of SRD5A3 and GSPT1 (eRF3a) proteins in PC-3 and HepG2 cells by C59; endogenous in cells; host or cells: 22Rv1, PC-3, HepG2
The experiment in a line: Western blot assay in HepG2 cells: GSPT1 (eRF3a). The note with it: different concentrations at 24 h (FIG. 10).
Source text: as §1, §2, §3, §4, §5

Assay [2] deals with T2, GSPT1 (eRF3a). The experiment in a line: Western blot assay in PC-3 cells: GSPT1 (eRF3a). The note with it: different concentrations at 24 h (FIG. 9).
Source text: as §1, §2, §3, §4, §5

For the next assay, the system named is KATO III cells. The experiment in a line: Anti-proliferative toxicity of C63 in tumor cell lines (CCK8): KATO III. The note with it: Homo sapiens, 72 h, 3 days, read-out: Inhibition rate. Here is the method:
Example 83: Detection of Anti-Proliferative Toxicity of C63 in Some Tumor Cell Lines
KATOIII cells (purchased from the Cell Bank of the Chinese Academy of Sciences, Cat. No. TCHu229) were subcultured in a culture medium (IMDM medium+1% penicillin-streptomycin dual-antibiotic solution+10% fetal bovine serum) in an incubator at 5% carbon dioxide and 37° C.
KATO III cells were seeded at 8000 cells/well (90 μL) on a 96-well plate and cultured for 24 h.
10 mM compound stock solutions were prepared in DMSO.
The compound stock solution was diluted with DMSO to give DMSO solutions 1-9 at concentrations of 0 μM, 2500 μM, 500 μM, 100 μM, 20 μM, 4 μM, 0.8 μM, 0.16 μM, and 0.032 μM.
2 μL of each of solutions 1-9 was added to 98 μL of the medium to give mixed solutions 11-19 of the compound and the medium.
10 μL of each of solutions 11-19 was added to the above cell seed solution to give a total volume of 100 μL (90 μL+10 μL).
The concentrations of the compound in the wells were 0 μM, 5.0 μM, 1.0 μM, 0.2 μM, 0.04 μM, 0.008 μM, 0.0016 μM, 0.00032 μM, and 0.000064 μM. All concentrations were in triplicate.
After the above-treated cells were cultured for 3 days, 10 μL of the CCK8 solution (DOJINDO, Cat. No. PF725) was added to each well. The plate was incubated in an incubator at 37° C. for 1-4 h and then detected on a microplate reader for the reading at 450 nm.

T2 sequence (P15170 1-637 isoform P15170-3): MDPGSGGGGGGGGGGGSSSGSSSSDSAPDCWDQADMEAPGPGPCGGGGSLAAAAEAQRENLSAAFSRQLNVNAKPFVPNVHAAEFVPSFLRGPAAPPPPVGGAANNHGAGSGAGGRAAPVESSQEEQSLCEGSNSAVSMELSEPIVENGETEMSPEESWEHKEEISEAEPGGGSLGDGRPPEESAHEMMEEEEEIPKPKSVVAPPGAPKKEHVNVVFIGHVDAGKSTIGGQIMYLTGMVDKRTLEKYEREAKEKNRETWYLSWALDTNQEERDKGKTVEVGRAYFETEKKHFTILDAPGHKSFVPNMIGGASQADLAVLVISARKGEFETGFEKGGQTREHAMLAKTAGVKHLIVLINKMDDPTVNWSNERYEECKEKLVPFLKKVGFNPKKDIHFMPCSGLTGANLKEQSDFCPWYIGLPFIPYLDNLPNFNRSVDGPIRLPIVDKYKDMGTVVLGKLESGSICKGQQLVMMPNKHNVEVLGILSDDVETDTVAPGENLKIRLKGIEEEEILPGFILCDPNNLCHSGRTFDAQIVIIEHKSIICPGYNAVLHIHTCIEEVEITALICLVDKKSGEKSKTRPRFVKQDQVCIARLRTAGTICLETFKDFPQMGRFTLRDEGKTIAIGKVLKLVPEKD
T2 sequence (Q96SW2 whole entry): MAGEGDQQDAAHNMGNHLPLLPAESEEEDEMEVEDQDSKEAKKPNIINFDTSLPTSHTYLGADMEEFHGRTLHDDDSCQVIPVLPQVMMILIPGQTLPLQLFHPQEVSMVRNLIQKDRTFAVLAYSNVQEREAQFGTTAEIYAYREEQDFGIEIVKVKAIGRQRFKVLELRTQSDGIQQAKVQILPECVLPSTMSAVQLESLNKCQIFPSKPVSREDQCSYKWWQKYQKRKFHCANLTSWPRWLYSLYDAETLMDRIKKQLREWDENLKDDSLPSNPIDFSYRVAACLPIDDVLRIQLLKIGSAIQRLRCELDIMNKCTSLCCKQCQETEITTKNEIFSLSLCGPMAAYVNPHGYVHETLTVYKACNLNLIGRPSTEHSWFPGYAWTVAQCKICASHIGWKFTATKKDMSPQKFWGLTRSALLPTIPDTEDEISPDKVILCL
T2 sequence (Q16531 whole entry partner): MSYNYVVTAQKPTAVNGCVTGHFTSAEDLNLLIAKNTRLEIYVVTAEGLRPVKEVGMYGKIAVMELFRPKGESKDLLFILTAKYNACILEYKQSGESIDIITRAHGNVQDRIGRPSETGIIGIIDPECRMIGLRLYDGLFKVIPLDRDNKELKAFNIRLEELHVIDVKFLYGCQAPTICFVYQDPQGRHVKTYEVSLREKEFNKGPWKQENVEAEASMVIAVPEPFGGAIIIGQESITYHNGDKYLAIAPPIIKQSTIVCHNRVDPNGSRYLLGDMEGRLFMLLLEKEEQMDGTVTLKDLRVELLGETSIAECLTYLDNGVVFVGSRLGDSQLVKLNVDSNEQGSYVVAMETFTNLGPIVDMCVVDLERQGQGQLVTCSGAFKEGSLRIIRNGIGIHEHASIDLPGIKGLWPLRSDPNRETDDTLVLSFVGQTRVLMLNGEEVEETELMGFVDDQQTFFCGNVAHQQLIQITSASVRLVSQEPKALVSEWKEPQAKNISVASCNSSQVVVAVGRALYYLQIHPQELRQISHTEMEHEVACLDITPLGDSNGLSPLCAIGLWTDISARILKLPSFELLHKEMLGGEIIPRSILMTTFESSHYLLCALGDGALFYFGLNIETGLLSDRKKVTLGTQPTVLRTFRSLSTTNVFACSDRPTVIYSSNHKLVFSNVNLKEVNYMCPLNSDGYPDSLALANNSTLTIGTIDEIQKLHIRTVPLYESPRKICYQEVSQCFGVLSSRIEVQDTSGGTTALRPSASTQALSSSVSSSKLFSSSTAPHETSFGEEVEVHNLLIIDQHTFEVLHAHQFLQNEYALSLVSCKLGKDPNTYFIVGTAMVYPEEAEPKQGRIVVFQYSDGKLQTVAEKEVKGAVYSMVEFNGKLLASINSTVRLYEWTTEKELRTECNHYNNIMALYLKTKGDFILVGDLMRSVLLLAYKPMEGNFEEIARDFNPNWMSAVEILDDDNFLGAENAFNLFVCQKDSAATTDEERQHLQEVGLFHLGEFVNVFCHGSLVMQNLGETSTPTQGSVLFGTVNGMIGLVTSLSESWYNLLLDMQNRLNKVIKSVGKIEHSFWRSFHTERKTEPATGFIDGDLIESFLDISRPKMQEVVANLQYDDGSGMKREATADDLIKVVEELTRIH

With `C[C@]12C=CC(=O)N[C@@H]1CC[C@@H]1[C@@H]2CC[C@]2(C)[C@@H](C(=O)Nc3cccc(N[C@@H]4CCC[C@@H](Nc5cccc6c5C(=O)N(C5CCC(=O)NC5=O)C6=O)C4)c3)CC[C@@H]12` (stereo partly drawn) [C59, N-(3-(N—(N-(4-(2-(3-(2,6-dioxopiperidine))-isoindole-1,3-dione))-1R,3R-cyclohexanediamine))phenyl)-3-oxo-4-aza-5α-androst-1-ene-17β-carboxamide], the “downregulation of SRD5A3 protein (Western blot)” value on SRD5A3 is listed as “downregulation”. Also, the “downregulation of GSPT1 (eRF3a) protein (Western blot)” value at GSPT1 (eRF3a) [1] and on GSPT1 (eRF3a) [2] was “downregulation” in each case.

On to `C[C@]12C=CC(=O)N[C@@H]1CC[C@@H]1[C@@H]2CC[C@]2(C)[C@@H](C(=O)Nc3cccc(N[C@@H]4CCC[C@@H](Nc5cccc6c5C(=O)N([C@H]5CCC(=O)NC5=O)C6=O)C4)c3)CC[C@@H]12` [C63, N-(3-(N—(N-(4-(2-(3S-(2,6-dioxopiperidine))-isoindole-1,3-dione))-1R,3R-cyclohexanediamine))phenyl)-3-oxo-4-aza-5α-androst-1-ene-17β-carboxamide], for which, in the assay with KATO III cells (0.000064 μM), the inhibition at 64 pM is 1.09%. The inhibition at 0.00032 µM with KATO III cells (0.000320 μM) is 2.17%. For the same compound, the inhibition at 0.0016 µM in the assay on KATO III cells (0.001600 μM) is 15.9%. Moreover, the inhibition at 0.008 µM in the assay on KATO III cells (0.008000 μM) was found to be 51.5%. For the same compound, in the assay on KATO III cells (0.040000 μM), the inhibition at 0.04 µM amounted to 67.9%. In addition, the inhibition at 0.2 µM in the assay on KATO III cells (0.200000 μM) was 74.8%. For the same compound, the inhibition at 1 µM with KATO III cells (1.000000 μM) stood at 74.7%. Besides, the inhibition at 5 µM in the assay with KATO III cells (5.000000 μM) came out at 72.3%.

One may read the inhibition as the change of the read-out against control, counted positive when it falls.
